In article PMC12040169 (PLOS Biology, 2025):

Experiments:
[1] = test system: T1, CTL2-GFP (C. trachomatis L2/434/Bu, GFP-expressing); assay: microbe, parasite or virus in culture; set-up: Intracellular C. trachomatis growth in HeLa cells, bulk GFP fluorescence relative to DMSO; details: Chlamydia trachomatis, HeLa, 28.5 h; bulk GFP, mean of 2; read-out: % of control remaining
T1 construct: L2/434/Bu, GFP-expressing
Description: MICs were calculated as described above.

[2] = test system: T2, C. trachomatis L2/434/Bu expressing GFP (CTL2-GFP); assay: microbe, parasite or virus in culture; set-up: C. trachomatis total inclusion area by high-content imaging, normalised to DMSO; details: Chlamydia trachomatis, HeLa, 28.5 h; total inclusion area; read-out: % of control remaining
T2 construct: L2/434/Bu GFP intracellular growth in HeLa cells
Procedure, shortened: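 Screening measures GFP fluorescence from the reporter strain and resorufin fluorescence for host viability, with Hoechst-based imaging of fixed cells adding inclusion area, inclusion number and nuclei count per well.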

in vitro = assay: in vitro; set-up: Viability of infected HeLa host cells, resazurin conversion, bulk resorufin fluorescence relative to DMSO; details: human, hela cells; bulk resorufin, mean of 2

Structure (SMILES) | activity at 1 µM [1] | activity at 5 µM [1] | activity at 10 µM [1] | activity at 1 µM [2] | activity at 5 µM [2] | activity at 10 µM [2] | viability at 28.5 h, 1 µM (in vitro) | viability at 28.5 h, 5 µM (in vitro) | viability at 28.5 h, 10 µM (in vitro)
O=[N+]([O-])c1cccc(C(Nc2cccnc2)c2cc(Cl)c3cccnc3c2O)c1 (centres unmarked) [CBK268629] | 102% | 82% | 56.2% | 104% | 93.6% | 47.5% | 93.9% | 88.9% | 91.6%
O=C1Oc2nc3ccccc3cc2CN1C1CC1 [CBK282870] | 0.777% | 1.12% | 3.61% | 0.264% | 0.496% | 0.404% | 112% | 112% | 98.4%
O=C(c1cccs1)N1C[C@H](c2ccc(F)cc2)[C@H]2CN(Cc3ccccc3)CC[C@H]21 [CBK285544] | 93.9% | 109% | 115% | 74.8% | 78.2% | 59.8% | 93.4% | 91.7% | 95.5%
Cc1cccc(-c2ccc(CC3(C(N)=O)CCN(C(=O)CCc4ccccc4)CC3)cc2)c1 [CBK285796] | 133% | 4.53% | 4.56% | 113% | 4.18% | 1.3% | 91.6% | 96.9% | 106%
Cc1ccc2[nH]c(-c3cccc(NC(=O)c4cccc(CN5CCCC5=O)c4)c3)nc2c1 [CBK285838] | 137% | 94.9% | 34.2% | 125% | 91.8% | 48.2% | 93% | 83.3% | 87.6%
O=C(CC1CCN(CCc2ccccc2)CC1)Nc1cccc(-n2cccn2)c1 [CBK285951] | 11.3% | 5.45% | 1.48% | 13.7% | 0.475% | 0.166% | 91.7% | 87.4% | 88.6%
CCc1cc(-c2n[nH]cc2-c2nc(C)cs2)c(O)cc1OC [CBK287934] | 133% | 62.2% | 7.47% | 87.9% | 31.5% | 6.53% | 101% | 96.8% | 94.8%
CNC(=S)N1CCN(c2nsc3ccccc23)CC1 [CBK288515] | 4.18% | 3.58% | 5.68% | 0.93% | 0.381% | 0.417% | 98.8% | 96.2% | 101%
O=C(O)c1cn(C2CC2)c2cc(N3CCN(C(=O)C4CCCO4)CC3)c(F)cc2c1=O (centres unmarked) [CBK297139] | 96.1% | 15.3% | 0.67% | 46.9% | 12.4% | 6.62% | 97% | 94.9% | 114%
COCCCNS(=O)(=O)c1ccc(-n2ncc(Cl)c(Cl)c2=O)cc1 [CBK305039] | 78.8% | 24.5% | 21.2% | 73.2% | 2.13% | – | 97.7% | 32.2% | 0%
Cc1ccccc1Nc1nc(N)nc(CN2CCCC(C(F)(F)F)C2)n1 (centres unmarked) [CBK305073] | 153% | 120% | 139% | 144% | 60.7% | 97.8% | 96.6% | 101% | 97.7%
O=C(NCCCn1ccnc1)N1CCN(Cc2ccc(Cl)cc2)CC1 [CBK305894] | 143% | 148% | 147% | 118% | 87% | 78.9% | 90.1% | 93.5% | 89.5%
O=C(NS(=O)(=O)c1cccc(-c2nnco2)c1)C1CC1C1CCCCC1 (centres unmarked) [CBK305924] | 129% | 146% | 143% | 120% | 151% | 119% | 91% | 99.4% | 94.7%
